Assay [1] deals with HL-60. Nature of the assay: Cytotoxicity against human HL60 cells by MTT assay. In kind it is functional, cell-based.
Assay [2] relates to HCT-116. Nature of the assay: Cytotoxicity against human HCT116 cells by MTT assay. In kind it is functional, cell-based. (In general: Tetrazolium dyes change colour on reduction, which living cells bring about.)
In assay [3] the test system is HCT-116. The experiment in a line: Induction of apoptosis in human HCT116 cells assessed as chromatin condensation at IC50 concentration after 24 to 48 hrs using Hoechst 33342 staining by fluorescence microscope. In kind it is functional, cell-based.
Assay [4] concerns HCT-116. Nature of the assay: Induction of apoptosis in human HCT116 cells assessed as increase in expression of Bax by Western blotting. The assay is classed as functional, cell-based. For orientation: In western blotting, separated proteins are transferred to a membrane and probed.
Assay [5] relates to HCT-116. The experiment in a line: Induction of apoptosis in human HCT116 cells assessed as increase in induction of PARP cleavage by Western blotting. The assay is classed as functional, cell-based.
The subject of assay [6] is HCT-116. Nature of the assay: Induction of apoptosis in human HCT116 cells assessed as membrane blebbing at IC50 concentration after 24 to 48 hrs using Hoechst 33342 staining by fluorescence microscope. The assay is classed as functional, cell-based.
Assay [7] concerns the target Mitogen-activated protein kinase; ERK1/ERK2 (Homo sapiens) (UniProt P27361+P28482). Nature of the assay: Activation of ERK1/2 in human HCT116 cells assessed as phosphorylated ERK1/2 level by Western blotting. In kind it is cell-based. The settings on record: HCT-116.
The subject of assay [8] is HCT-116. Nature of the assay: Induction of apoptosis in human HCT116 cells assessed as increase in expression of DR5 by Western blotting. The assay is classed as functional, cell-based.
In assay [9] the test system is HCT-116. Nature of the assay: Induction of apoptosis in human HCT116 cells assessed as decrease in expression of BCL-2 by Western blotting. The assay is classed as functional, cell-based.
For assay [10], the system named is HCT-116. Nature of the assay: Induction of apoptosis in human HCT116 cells assessed as cell shrinkage at IC50 concentration after 24 to 48 hrs using Hoechst 33342 staining by fluorescence microscope. The assay is classed as functional, cell-based.
The subject of assay [11] is HL-60. The experiment in a line: Induction of apoptosis in human HL60 cells assessed as cell shrinkage at IC50 concentration after 24 to 48 hrs using Hoechst 33342 staining by fluorescence microscope. The assay is classed as functional, cell-based.
Assay [12] has as its system HCT-116. Nature of the assay: Induction of apoptosis in human HCT116 cells assessed as increase in caspase-9 activation by Western blotting. In kind it is functional, cell-based.
In assay [13] the test system is HL-60. Nature of the assay: Induction of apoptosis in human HL60 cells assessed as membrane blebbing at IC50 concentration after 24 to 48 hrs using Hoechst 33342 staining by fluorescence microscope. The assay is classed as functional, cell-based.
The test system of assay [14] is HL-60. Nature of the assay: Induction of apoptosis in human HL60 cells assessed as chromatin condensation at IC50 concentration after 24 to 48 hrs using Hoechst 33342 staining by fluorescence microscope. In kind it is functional, cell-based.

Calls of active or inactive are those of the source. The calls are words filed in the database; no cut-off is given here. Where only a bound is given, the exact number is not on record here.

Usually IC50 stands for the concentration that gives 50% inhibition.

Mitogen-activated protein kinase; ERK1/ERK2 (Homo sapiens), sequence (P27361 whole entry, looked up): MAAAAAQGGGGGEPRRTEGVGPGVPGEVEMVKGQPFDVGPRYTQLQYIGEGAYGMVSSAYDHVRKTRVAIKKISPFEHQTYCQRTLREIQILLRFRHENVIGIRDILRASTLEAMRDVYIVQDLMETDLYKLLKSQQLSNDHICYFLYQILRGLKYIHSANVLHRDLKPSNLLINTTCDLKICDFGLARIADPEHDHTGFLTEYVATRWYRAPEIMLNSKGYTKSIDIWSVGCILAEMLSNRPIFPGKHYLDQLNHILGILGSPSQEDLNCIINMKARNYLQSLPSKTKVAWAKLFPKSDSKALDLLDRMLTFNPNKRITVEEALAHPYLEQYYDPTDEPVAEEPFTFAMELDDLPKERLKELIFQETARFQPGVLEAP
Mitogen-activated protein kinase; ERK1/ERK2 (Homo sapiens), sequence (P28482 whole entry, looked up): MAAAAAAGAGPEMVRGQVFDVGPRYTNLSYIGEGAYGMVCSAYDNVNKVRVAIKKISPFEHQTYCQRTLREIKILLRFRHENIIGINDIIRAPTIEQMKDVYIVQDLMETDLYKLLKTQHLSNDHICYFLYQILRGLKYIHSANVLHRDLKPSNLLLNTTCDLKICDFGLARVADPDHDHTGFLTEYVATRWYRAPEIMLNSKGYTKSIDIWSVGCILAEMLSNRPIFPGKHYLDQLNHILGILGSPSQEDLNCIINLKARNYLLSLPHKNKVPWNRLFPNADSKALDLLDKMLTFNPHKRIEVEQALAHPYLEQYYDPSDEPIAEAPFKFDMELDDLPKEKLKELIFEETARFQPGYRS

As for `CC1(C)CC[C@]2(C(=O)O[C@@H]3O[C@H](CO)[C@@H](O)[C@H](O)[C@H]3O)CC[C@]3(C)C(=CC[C@@H]4[C@@]5(C)CC[C@H](O[C@@H]6O[C@H](C(=O)O)[C@@H](O)[C@H](O[C@@H]7O[C@H](CO)[C@@H](O)[C@H](O)[C@H]7O)[C@H]6O)C(C)(C)[C@@H]5CC[C@]43C)[C@@H]2C1`, the IC50 is 73 µM in the assay with HL-60 [1] and greater than 100 µM with HCT-116 [2].

`COC(=O)[C@H]1O[C@@H](O[C@H]2CC[C@]3(C)[C@H]4CC=C5[C@@H]6CC(C)(C)CC[C@]6(C(=O)O[C@@H]6O[C@H](CO)[C@@H](O)[C@H](O)[C@H]6O)CC[C@@]5(C)[C@]4(C)CC[C@H]3C2(C)C)[C@H](O)[C@@H](O[C@@H]2O[C@H](CO)[C@@H](O)[C@H](O)[C@H]2O)[C@@H]1O`: the values for the IC50 in the assay on HL-60 [1] and in the assay on HCT-116 [2] were 83.9 µM and greater than 100 µM, respectively.

On to `CC1(C)CC[C@]2(C(=O)O[C@@H]3O[C@H](CO)[C@@H](O)[C@H](O)[C@H]3O)CC[C@]3(C)C(=CC[C@@H]4[C@@]5(C)CC[C@H](O[C@@H]6O[C@H](CO)[C@@H](O)[C@H](O)[C@H]6O[C@H]6OC[C@@H](O)[C@H](O)[C@H]6O)C(C)(C)[C@@H]5CC[C@]43C)[C@@H]2C1`, for which the figures for the IC50 in the assay with HL-60 [1] and in the assay on HCT-116 [2] were greater than 100 µM and 75.9 µM, respectively.

For the compound `COC(=O)[C@H]1O[C@@H](O[C@H]2CC[C@]3(C)[C@H]4CC=C5[C@@H]6CC(C)(C)CC[C@]6(C(=O)O[C@@H]6O[C@H](CO)[C@@H](O)[C@H](O)[C@H]6O)CC[C@@]5(C)[C@]4(C)CC[C@H]3C2(C)C)[C@H](O)[C@@H](O)[C@@H]1O[C@H]1O[C@@H](CO)[C@H](O)[C@H]1O` [ARALOSIDE A METHYL ESTER], the IC50 is 63.4 µM in the assay with HL-60 [1] and greater than 100 µM in the assay on HCT-116 [2].

As to `CC1(C)CC[C@]2(C(=O)O[C@@H]3O[C@H](CO)[C@@H](O)[C@H](O)[C@H]3O)CC[C@]3(C)C(=CC[C@@H]4[C@@]5(C)CC[C@H](O[C@@H]6O[C@H](C(=O)O)[C@@H](O)[C@H](O)[C@H]6O)C(C)(C)[C@@H]5CC[C@]43C)[C@@H]2C1` [CHIKUSETSUSAPONIN IVA], the concentration for half-maximal inhibition (IC50) with HL-60 [1] is 76.2 µM; in the assay on HCT-116 [2], 78.1 µM.

Regarding `O=C1c2c(O)ccc(O)c2C(=O)c2c(NCCNCCO)ccc(NCCNCCO)c21` [MITOXANTRONE], the results for the IC50 in the assay on HL-60 [1] and in the assay with HCT-116 [2] were 7.5 µM and 3.96 µM, respectively.

In the case of `CC1(C)CC[C@]2(C(=O)O)CC[C@]3(C)C(=CC[C@@H]4[C@@]5(C)CC[C@H](O)C(C)(C)[C@@H]5CC[C@]43C)[C@@H]2C1` [OLEANOLIC_ACID], the values for the IC50 in the assay on HL-60 [1] and in the assay on HCT-116 [2] were 77.5 µM and 4.8 µM, respectively.

As for `COC(=O)[C@H]1O[C@@H](O[C@H]2CC[C@]3(C)[C@H]4CC=C5[C@@H]6CC(C)(C)CC[C@]6(C(=O)O)CC[C@@]5(C)[C@]4(C)CC[C@H]3C2(C)C)[C@H](O[C@H]2OC[C@@H](O)[C@H](O)[C@H]2O)[C@@H](O)[C@@H]1O` [PESUDOGINSENOSIDE RP1 METHYL ESTER], the result (in the assay with HCT-116 [3]; in the assay with HCT-116 [4]; with HCT-116 [5]; in the assay on HCT-116 [6]; in [7]; in the assay on HCT-116 [8]) was Active. In addition, the outcome in the assay with HCT-116 [9], in the assay with HCT-116 [10], with HL-60 [11], in the assay with HCT-116 [12], with HL-60 [13] and in the assay with HL-60 [14] was Active. In addition, the IC50 in the assay with HL-60 [1] turned out to be 41.5 µM; with HCT-116 [2], 6.5 µM.

Consider `COC(=O)[C@H]1O[C@@H](O[C@H]2CC[C@]3(C)[C@H]4CC=C5[C@@H]6CC(C)(C)CC[C@]6(C(=O)O[C@@H]6O[C@H](CO)[C@@H](O)[C@H](O)[C@H]6O)CC[C@@]5(C)[C@]4(C)CC[C@H]3C2(C)C)[C@H](O[C@H]2OC[C@@H](O)[C@H](O)[C@H]2O)[C@@H](O)[C@@H]1O` [PSEUDOGINSENOSIDE RT1 METHYL ESTER], for which the IC50 in the assay with HL-60 [1] and in the assay on HCT-116 [2] was greater than 100 µM each time.

As to `CC1(C)CC[C@]2(C(=O)O[C@@H]3O[C@H](CO)[C@@H](O)[C@H](O)[C@H]3O)CC[C@]3(C)C(=CC[C@@H]4[C@@]5(C)CC[C@H](O[C@@H]6O[C@H](C(=O)O)[C@@H](O)[C@H](O)[C@H]6O[C@H]6OC[C@@H](O)[C@H](O)[C@H]6O)C(C)(C)[C@@H]5CC[C@]43C)[C@@H]2C1` [PSEUDOGINSENOSIDE RT1], the IC50 in the assay with HL-60 [1] is 91.2 µM; in the assay with HCT-116 [2], greater than 100 µM.

For `COC(=O)[C@H]1O[C@@H](O[C@H]2CC[C@]3(C)[C@H]4CC=C5[C@@H]6CC(C)(C)CC[C@]6(C(=O)O)CC[C@@]5(C)[C@]4(C)CC[C@H]3C2(C)C)[C@H](O)[C@@H](O[C@@H]2O[C@H](CO)[C@@H](O)[C@H](O)[C@H]2O)[C@@H]1O` [SPINASAPONIN A METHYL ESTER], the outcome (with HCT-116 [3]; in the assay with HCT-116 [4]; in the assay on HCT-116 [5]; in the assay with HCT-116 [6]; in [7]; in the assay on HCT-116 [8]) was Active. Also, the outcome in the assay on HCT-116 [9], in the assay on HCT-116 [10], in the assay on HL-60 [11], in the assay on HCT-116 [12], with HL-60 [13] and with HL-60 [14] was Active. For the same compound, the IC50 in the assay on HL-60 [1] was 4.44 µM; with HCT-116 [2], 0.63 µM.

As to `COC(=O)[C@H]1O[C@@H](O[C@H]2CC[C@]3(C)[C@H]4CC=C5[C@@H]6CC(C)(C)CC[C@]6(C(=O)O[C@@H]6O[C@H](CO)[C@@H](O)[C@H](O)[C@H]6O)CC[C@@]5(C)[C@]4(C)CC[C@H]3C2(C)C)[C@H](O)[C@@H](O[C@@H]2O[C@H](CO)[C@@H](O)[C@H](O)[C@H]2O)[C@@H]1O[C@H]1O[C@@H](CO)[C@H](O)[C@H]1O` [STIPULEANOSIDE R2 METHYL ESTER], the values for the IC50 in the assay on HL-60 [1] and in the assay on HCT-116 [2] were 67.1 µM and greater than 100 µM, respectively.

With `CC1(C)CC[C@]2(C(=O)O[C@@H]3O[C@H](CO)[C@@H](O)[C@H](O)[C@H]3O)CC[C@]3(C)C(=CC[C@@H]4[C@@]5(C)CC[C@H](O[C@@H]6O[C@H](C(=O)O)[C@@H](O[C@H]7O[C@@H](CO)[C@H](O)[C@H]7O)[C@H](O[C@@H]7O[C@H](CO)[C@@H](O)[C@H](O)[C@H]7O)[C@H]6O)C(C)(C)[C@@H]5CC[C@]43C)[C@@H]2C1` [STIPULEANOSIDE R2], the IC50 in the assay on HL-60 [1] and with HCT-116 [2] was greater than 100 µM in each case.

The record behind these values is ChEMBL document CHEMBL1287676, “Oleanane-type triterpenoids from Panax stipuleanatus and their anticancer activities” (Bioorg Med Chem Lett, 2010).
